The record followed here is ChEMBL document CHEMBL1201862, “PubChem BioAssay data set” (2004).

In assay [1] the target is T1, Sentrin-specific protease 1 (Homo sapiens, UniProt Q9P0U3). Briefly: SENP1 catalytic domain blockers, concentration series – biochemical, kinetic FRET, dose response (AID 651697). It is filed as functional. Conditions: read-out: IC50_Mean.
For assay [2], the target named is T2, Fatty acid synthase (Homo sapiens, UniProt P49327). Briefly: inhibition of human FAS-TE enzyme activity – biochemical, endpoint fluorescence intensity, uHTS hits, dose response (AID 624327).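 Further: fluorescence from hydrolysis of an O-methyl fluorescein acyl ester substrate by the enzyme.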 It is filed as functional.
Assay [3] deals with T1, Sentrin-specific protease 1. Briefly: Dose response confirmation of small molecule inhibitors of the catalytic domain of the SUMO protease, SENP1 in a FRET assay. The format is functional. The settings on record: read-out: IC50_Mean.
In assay [4] the target is T2, Fatty acid synthase. Briefly: inhibition of human FAS-TE enzyme activity – biochemical, kinetic fluorescence intensity, dose response (AID 624326).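 Further: rate of fluorescence rise from hydrolysis of a fluorogenic O-methyl fluorescein ester substrate.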 The format is functional.
Assay [5] deals with Beta-lactamase (Pseudomonas aeruginosa, UniProt Q79MP6).
For assay [6], the target named is Beta-lactamase (Salmonella choleraesuis (strain SC-B67), UniProt Q5J463).
A further assay deals with P388/ADR. Briefly: cells. It is filed as functional. Conditions: Mus musculus.
The next assay deals with SN12K1. Briefly: cells. It is filed as functional. Conditions: Homo sapiens.
The subject of another assay is P388. Briefly: cells. It is filed as functional. The settings on record: Mus musculus.
Assay [7] deals with T3, Small ubiquitin-related modifier 1 (Homo sapiens, UniProt P63165). Briefly: SUMO1 protein interaction blockers, potency – biochemical, fluorescence polarization, uHTS hits, dose response (AID 624382). It is filed as functional. Conditions: read-out: IC50_Mean.
Assay [8] addresses T3, Small ubiquitin-related modifier 1. Briefly: SUMO1 protein-protein binding blockers, potency – biochemical, FRET, dose response (AID 624383). The format is functional. Conditions: read-out: IC50_Mean.
For assay [9], the target named is T4, Rac GTPase-activating protein 1 (Homo sapiens, UniProt Q9H0H5).
T4 sequence (Q9H0H5 whole entry): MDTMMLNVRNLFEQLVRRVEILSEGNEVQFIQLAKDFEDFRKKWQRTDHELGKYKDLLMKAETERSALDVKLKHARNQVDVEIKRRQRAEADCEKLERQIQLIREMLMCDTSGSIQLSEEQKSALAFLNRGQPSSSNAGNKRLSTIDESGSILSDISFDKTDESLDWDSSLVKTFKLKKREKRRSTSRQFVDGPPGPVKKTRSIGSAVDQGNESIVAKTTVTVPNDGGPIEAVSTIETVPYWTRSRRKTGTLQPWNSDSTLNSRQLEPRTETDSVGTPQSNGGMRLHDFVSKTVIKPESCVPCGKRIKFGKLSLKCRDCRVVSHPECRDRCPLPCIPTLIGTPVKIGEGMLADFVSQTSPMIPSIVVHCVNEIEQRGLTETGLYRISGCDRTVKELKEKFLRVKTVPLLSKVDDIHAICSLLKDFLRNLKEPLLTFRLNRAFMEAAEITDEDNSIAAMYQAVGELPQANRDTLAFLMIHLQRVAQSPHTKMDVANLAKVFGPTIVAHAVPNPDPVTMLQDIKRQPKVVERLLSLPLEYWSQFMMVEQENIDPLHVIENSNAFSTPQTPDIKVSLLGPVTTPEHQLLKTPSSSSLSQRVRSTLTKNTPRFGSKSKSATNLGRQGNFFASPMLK
Briefly: blockers of MgcRacGAP-driven Rac1 GTP hydrolysis – biochemical, ADP Hunter fluorescence, primary and confirmatory, confirmation (AID 624330). It is filed as functional.

The target of assay [10] is T5, Aryl hydrocarbon receptor (Homo sapiens, UniProt P35869).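 Further: confirmatory quantitative high-throughput screen measuring activation of the AhR signaling pathway.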
T5 sequence (P35869 whole entry): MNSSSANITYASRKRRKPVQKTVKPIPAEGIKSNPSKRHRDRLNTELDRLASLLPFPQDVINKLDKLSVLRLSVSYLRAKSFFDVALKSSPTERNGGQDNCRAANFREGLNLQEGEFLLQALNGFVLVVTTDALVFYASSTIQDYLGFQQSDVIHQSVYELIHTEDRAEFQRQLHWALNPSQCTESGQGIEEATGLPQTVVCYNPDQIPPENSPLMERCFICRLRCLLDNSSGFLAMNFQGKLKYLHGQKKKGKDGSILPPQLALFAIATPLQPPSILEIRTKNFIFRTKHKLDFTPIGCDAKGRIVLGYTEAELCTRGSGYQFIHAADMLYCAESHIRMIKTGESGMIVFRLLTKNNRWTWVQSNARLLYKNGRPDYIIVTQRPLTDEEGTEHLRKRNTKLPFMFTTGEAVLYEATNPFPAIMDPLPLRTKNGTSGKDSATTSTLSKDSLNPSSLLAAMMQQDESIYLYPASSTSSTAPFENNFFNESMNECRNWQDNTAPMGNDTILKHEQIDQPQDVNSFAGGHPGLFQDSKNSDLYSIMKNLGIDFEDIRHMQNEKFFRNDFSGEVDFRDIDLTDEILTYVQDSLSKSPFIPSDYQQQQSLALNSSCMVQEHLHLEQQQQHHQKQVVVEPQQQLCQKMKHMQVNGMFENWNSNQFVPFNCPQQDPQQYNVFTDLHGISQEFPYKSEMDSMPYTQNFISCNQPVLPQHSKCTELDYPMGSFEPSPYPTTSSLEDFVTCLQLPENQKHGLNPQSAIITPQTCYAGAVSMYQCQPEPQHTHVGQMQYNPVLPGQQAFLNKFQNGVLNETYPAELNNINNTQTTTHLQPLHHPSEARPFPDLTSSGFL
Conditions: Potency.

The target of another assay is Mucolipin-3 (Homo sapiens, UniProt Q8TDD5). Briefly: Dose response cell-based high-throughput screening assay for agonists of the transient receptor potential channel ML3 (TRPML3). [Related pubchem assays: 1526, 1424, 1448 ]. The format is functional.
The next assay concerns the target Ion channel NompC (Danio rerio, UniProt Q7T1G6). Briefly: Fluorescence counterscreen assay for TRPML3 agonists: dose response cell-based high-throughput screening assay to identify agonists of the transient receptor potential channel N1 (TRPN1). [Related pubchem assays: 1526, 1424, 1448 ]. The format is functional.
The target in assay [11] is T6, Heat shock factor protein 1 (Mus musculus, UniProt P38532).
T6 sequence (P38532 whole entry): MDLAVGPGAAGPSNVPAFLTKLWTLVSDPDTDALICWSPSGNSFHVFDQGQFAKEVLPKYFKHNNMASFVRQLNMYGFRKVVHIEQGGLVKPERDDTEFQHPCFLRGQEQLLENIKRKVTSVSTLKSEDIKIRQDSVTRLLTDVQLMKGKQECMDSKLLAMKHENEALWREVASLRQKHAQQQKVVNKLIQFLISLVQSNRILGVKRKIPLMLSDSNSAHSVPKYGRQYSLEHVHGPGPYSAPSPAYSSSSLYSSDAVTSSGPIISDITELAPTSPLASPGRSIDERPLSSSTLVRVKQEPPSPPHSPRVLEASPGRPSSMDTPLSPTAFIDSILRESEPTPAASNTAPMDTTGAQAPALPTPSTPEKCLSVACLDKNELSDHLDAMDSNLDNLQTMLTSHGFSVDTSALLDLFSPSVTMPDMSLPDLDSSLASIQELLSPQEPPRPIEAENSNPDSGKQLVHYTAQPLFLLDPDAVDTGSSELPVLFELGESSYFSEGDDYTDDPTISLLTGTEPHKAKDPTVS
Briefly: enhancement of HSF1-driven luciferase signal – cell-based, NIH3T3, luminescence, dose retest, confirmation (AID 435004).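 Further: stress induced by proteasome inhibitor MG132 added 30 min after compound; luciferase reporter driven by HSF1 response element in NIH3T3 cells; actives raise luminescence as potentiators of the MG132 stress response.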 The format is functional.

Assay [12] deals with T7, Low molecular weight phosphotyrosine protein phosphatase (Homo sapiens, UniProt P24666).
T7 sequence (P24666 whole entry): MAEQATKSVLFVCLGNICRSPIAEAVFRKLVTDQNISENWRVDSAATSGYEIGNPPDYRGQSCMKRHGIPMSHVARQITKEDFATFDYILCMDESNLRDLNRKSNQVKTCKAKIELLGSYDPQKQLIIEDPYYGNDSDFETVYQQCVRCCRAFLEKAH
It is filed as functional. Conditions: read-out: IC50_Mean.

The target of assay [13] is T7, Low molecular weight phosphotyrosine protein phosphatase. The format is functional. The settings on record: read-out: IC50_Mean. The source holds these as a separate data set.
Another assay concerns the target Mu-type opioid receptor (Homo sapiens, UniProt P35372). The format is functional, cell-based.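 Further: U2OS cells with beta-arrestin recruitment to OPRM1 by beta-gal complementation.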
In assay [14] the target is 5-hydroxytryptamine receptor 2A (Mus musculus, UniProt P35363). It is filed as functional, cell-based.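 Further: CHO-K1 cells with tagged receptor and beta-arrestin; agonist potency measured as compound-induced activation of the receptor.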
The target in assay [15] is Hepatocyte nuclear factor 4-alpha (Homo sapiens, UniProt P41235). The format is functional, cell-based.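 Further: biochemical luminescence-based dose-response counterscreen measuring inhibition of HNF4 dimerization, run alongside a screen for blockers of ABHD5–perilipin-5 interaction; split luciferase complementation of HNF4 fusion proteins in cell lysate measuring dimerization.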
The next assay concerns Vero. Briefly: viability loss in Vero cells – cell-based, plate reader, cherry-pick samples, cytotoxicity control, dose response (AID 687020). It is filed as functional. Conditions: Chlorocebus sabaeus.
Assay [16] has as its target T8, Mannose-6-phosphate isomerase (Homo sapiens, UniProt P34949).
T8 sequence (P34949 whole entry): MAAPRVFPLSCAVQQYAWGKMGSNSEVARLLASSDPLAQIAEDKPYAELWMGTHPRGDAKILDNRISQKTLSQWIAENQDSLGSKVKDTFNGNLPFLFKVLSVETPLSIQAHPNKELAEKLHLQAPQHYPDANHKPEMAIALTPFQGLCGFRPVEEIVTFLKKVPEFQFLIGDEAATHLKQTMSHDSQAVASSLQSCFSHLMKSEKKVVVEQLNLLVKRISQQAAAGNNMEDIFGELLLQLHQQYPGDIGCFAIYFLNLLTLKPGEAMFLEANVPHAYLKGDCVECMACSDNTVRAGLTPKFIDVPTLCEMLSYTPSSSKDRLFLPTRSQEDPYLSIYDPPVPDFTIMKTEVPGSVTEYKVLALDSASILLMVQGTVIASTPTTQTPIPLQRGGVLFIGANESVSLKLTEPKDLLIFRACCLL
Briefly: MPI inhibition at elevated mannose 6-phosphate – biochemical, fluorescence intensity, high mannose 6-phosphate, primary screen (AID 1220).

Assay [17] concerns the target T9, Sentrin-specific protease 8 (Homo sapiens, UniProt Q96LD8).
T9 sequence (Q96LD8 whole entry): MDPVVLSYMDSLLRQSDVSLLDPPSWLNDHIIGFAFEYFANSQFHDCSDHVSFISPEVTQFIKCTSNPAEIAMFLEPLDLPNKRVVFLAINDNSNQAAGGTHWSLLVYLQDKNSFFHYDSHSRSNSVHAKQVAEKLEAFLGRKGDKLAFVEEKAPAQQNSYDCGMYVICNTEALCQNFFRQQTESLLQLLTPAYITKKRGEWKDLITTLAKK
It is filed as functional.

In assay [18] the target is T9, Sentrin-specific protease 8. It is filed as functional. This is another data set of the same source.
The target in assay [19] is ADP-ribosylation factor GTPase-activating protein 1 (Rattus norvegicus, UniProt Q62848). Briefly: Fluorescence polarization-based biochemical high throughput dose response screening assay to identify inhibitors of ADP-ribosylation factor GTPase activating protein 1 (ARFGAP1). The format is functional.
A short description of assay [20]: bead-based luminescence quenchers, dual-tagged ARNT – biochemical, AlphaScreen, cherry-pick, artefact control for ARNT-TACC3 interaction inhibitor project, dose response (AID 651705).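 Further: AlphaScreen bead proximity signal that flags compounds interfering with the detection technology; potency reflects signal decrease which marks the compound as an assay artifact.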 It is filed as functional.
A short description of assay [21]: IC50 of Artemis nuclease activity blockers – biochemical, fluorescence intensity, dose response (AID 720701).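 Further: Artemis endonuclease enzyme.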 It is filed as functional.

Calls of active or inactive are those of the source.

T2 sequence (P49327 whole entry, the tested form may be a part): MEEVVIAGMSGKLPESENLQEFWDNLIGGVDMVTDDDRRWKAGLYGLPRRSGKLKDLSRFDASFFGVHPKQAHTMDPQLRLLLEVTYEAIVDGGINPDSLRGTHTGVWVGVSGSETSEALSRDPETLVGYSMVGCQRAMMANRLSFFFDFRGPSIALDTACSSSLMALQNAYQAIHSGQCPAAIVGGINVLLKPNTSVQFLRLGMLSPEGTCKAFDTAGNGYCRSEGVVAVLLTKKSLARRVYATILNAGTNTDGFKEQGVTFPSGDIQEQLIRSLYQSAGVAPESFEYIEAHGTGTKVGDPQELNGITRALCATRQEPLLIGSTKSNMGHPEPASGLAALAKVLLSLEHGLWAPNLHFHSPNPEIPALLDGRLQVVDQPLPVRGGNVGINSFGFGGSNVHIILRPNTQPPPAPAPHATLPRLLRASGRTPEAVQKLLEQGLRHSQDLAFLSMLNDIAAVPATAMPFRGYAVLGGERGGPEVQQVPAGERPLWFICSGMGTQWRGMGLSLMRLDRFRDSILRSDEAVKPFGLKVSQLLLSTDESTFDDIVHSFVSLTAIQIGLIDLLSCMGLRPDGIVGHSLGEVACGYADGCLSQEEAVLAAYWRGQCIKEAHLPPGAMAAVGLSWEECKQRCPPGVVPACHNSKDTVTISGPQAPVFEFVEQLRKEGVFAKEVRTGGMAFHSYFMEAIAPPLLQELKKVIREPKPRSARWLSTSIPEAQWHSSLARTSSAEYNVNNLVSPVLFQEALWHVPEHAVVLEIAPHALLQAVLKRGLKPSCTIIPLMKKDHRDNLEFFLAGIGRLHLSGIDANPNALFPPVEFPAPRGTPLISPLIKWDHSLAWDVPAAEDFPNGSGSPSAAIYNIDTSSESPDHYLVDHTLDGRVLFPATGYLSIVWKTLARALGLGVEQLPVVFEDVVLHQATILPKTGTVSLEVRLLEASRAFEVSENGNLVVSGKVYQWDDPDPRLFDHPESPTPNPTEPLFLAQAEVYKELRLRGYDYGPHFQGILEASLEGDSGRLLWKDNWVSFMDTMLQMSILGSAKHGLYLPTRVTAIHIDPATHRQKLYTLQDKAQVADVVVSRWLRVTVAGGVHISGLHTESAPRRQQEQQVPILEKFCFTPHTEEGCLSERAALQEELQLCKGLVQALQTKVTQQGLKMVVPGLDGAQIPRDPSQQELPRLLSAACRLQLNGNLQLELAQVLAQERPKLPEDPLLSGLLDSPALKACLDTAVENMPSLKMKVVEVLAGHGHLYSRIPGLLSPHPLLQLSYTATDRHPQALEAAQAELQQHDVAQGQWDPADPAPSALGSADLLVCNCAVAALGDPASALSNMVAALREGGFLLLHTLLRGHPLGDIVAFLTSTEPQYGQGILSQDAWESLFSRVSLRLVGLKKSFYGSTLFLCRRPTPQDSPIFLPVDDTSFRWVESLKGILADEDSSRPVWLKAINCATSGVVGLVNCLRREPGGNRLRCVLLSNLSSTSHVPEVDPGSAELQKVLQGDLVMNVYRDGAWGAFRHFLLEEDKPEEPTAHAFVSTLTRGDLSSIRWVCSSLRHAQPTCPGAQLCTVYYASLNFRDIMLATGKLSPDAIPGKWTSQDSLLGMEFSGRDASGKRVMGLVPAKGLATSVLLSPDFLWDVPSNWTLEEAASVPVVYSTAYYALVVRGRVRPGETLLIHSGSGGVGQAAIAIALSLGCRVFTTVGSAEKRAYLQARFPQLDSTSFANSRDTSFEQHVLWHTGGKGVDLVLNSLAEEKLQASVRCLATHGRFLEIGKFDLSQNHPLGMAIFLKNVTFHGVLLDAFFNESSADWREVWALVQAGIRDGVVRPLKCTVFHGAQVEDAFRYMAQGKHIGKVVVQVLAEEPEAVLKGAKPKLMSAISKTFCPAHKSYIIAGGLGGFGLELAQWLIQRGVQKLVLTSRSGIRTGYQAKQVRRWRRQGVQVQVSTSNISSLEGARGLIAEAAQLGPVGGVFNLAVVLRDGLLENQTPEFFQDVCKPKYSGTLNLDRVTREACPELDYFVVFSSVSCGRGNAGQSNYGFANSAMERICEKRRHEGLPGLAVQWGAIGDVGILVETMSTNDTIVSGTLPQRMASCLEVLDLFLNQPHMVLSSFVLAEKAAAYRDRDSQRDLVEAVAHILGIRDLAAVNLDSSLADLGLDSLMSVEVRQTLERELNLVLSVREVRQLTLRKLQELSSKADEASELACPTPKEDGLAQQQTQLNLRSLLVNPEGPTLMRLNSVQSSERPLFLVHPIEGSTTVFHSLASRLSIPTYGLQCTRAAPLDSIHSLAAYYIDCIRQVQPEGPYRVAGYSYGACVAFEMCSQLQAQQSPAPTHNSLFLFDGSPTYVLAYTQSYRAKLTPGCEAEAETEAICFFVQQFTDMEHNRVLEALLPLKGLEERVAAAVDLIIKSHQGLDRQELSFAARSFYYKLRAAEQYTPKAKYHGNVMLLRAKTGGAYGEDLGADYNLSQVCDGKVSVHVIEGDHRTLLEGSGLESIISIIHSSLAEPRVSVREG
T3 sequence (P63165 whole entry): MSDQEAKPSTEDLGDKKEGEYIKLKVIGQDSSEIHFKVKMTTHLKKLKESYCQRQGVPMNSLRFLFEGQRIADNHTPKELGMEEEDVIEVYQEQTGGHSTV
T1 sequence (Q9P0U3 whole entry, the tested form may be a part): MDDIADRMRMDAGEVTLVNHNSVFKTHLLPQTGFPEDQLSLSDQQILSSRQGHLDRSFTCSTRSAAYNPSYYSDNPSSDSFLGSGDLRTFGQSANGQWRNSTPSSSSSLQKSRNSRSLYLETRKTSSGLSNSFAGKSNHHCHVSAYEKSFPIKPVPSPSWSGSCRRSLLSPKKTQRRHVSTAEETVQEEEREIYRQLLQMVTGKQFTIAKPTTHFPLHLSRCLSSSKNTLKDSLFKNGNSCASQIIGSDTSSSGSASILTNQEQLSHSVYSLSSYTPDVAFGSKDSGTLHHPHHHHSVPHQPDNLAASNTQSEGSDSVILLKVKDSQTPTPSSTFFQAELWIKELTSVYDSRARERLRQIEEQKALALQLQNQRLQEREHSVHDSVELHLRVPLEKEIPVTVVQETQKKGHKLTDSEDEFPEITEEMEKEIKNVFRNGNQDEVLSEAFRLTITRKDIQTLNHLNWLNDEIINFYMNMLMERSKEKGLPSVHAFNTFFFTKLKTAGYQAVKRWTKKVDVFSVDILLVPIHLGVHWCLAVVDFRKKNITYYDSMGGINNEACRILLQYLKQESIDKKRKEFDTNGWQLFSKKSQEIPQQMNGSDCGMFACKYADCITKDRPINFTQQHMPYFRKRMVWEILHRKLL
Sequence of Beta-lactamase (Salmonella choleraesuis (strain SC-B67), UniProt Q5J463) (Q5J463 whole entry): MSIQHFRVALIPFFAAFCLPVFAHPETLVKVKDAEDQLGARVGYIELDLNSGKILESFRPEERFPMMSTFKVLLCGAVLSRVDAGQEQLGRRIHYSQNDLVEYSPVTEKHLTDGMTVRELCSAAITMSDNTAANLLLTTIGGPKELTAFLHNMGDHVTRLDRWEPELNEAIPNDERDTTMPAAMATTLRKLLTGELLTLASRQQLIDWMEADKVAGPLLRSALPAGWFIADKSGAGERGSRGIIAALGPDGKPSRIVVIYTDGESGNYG
Sequence of Hepatocyte nuclear factor 4-alpha (P41235 whole entry, the tested form may be a part): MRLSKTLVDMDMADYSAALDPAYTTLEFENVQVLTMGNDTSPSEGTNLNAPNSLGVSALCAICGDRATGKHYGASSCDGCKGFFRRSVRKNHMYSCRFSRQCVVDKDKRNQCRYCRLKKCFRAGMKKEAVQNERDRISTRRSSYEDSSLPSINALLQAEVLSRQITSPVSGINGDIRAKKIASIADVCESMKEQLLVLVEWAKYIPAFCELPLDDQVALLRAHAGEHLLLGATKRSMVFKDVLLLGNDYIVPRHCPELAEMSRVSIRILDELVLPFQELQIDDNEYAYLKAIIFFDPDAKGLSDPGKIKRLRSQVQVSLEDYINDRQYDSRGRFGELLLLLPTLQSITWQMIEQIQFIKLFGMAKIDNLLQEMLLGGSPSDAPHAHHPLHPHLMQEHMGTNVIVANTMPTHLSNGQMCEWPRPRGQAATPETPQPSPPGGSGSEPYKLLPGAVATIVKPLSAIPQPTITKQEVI
Sequence of Beta-lactamase (Pseudomonas aeruginosa, UniProt Q79MP6) (Q79MP6 whole entry): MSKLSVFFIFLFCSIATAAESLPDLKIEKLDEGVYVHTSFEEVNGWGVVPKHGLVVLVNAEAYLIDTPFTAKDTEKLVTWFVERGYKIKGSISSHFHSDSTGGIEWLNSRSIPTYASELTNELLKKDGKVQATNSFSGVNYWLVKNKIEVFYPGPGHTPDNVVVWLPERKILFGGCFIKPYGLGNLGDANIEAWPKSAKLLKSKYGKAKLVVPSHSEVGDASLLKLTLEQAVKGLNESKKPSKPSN
Sequence of ADP-ribosylation factor GTPase-activating protein 1 (Q62848 whole entry): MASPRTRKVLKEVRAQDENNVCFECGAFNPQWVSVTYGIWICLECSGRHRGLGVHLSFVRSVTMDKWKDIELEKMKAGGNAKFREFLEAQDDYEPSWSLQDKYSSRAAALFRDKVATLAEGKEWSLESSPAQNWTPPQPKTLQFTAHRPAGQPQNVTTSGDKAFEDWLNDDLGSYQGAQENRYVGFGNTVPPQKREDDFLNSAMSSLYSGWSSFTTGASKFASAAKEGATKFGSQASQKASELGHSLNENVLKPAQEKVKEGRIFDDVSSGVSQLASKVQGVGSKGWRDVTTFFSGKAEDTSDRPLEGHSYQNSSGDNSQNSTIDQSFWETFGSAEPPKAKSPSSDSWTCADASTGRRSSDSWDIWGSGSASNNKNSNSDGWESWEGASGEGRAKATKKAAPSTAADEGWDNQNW

`Cc1coc(NC(=O)CSc2nc(-c3ccncc3)cc(C(F)(F)F)c2C#N)n1`: the IC50 in assay [1] was 35.9 µM (inactive); on Fatty acid synthase [2], 18.5 µM (active); in assay [3], 25.4 µM (inactive); at Fatty acid synthase [4] it was 14.8 µM (active).

With `N#CC(C#N)=C1C=C2C=C(N3CCCCC3)CCC2CC1` (stereo not drawn), the figures for the IC50 on Beta-lactamase [5] and at Beta-lactamase [6] were 2.51 µM (active) and 1.23 µM (active), respectively.

For the compound `O=c1oc2cc(O)ccc2c2oc3cc(O)ccc3c12` [COUMESTROL], the GI50 with P388/ADR was 26.2 µM (inactive); in the assay with SN12K1, 50 µM (inactive); with P388, 27.4 µM (inactive). Besides, the IC50 was > 66.6 µM (inactive) in assay [7], 14.7 µM (active) in assay [8] and 32.3 µM (active) in assay [9]. In assay [10], the AC50 is 50.1 µM (inconclusive).

With `O=C(O)c1csc(N/N=C/c2ccc(Br)cc2)n1`, the EC50 is > 29.9 µM (not active) on Mucolipin-3, > 29.9 µM (not active) on Ion channel NompC and > 260 µM (inactive) in [11]. For the same compound, the IC50 was > 80 µM (inactive) in assay [12] and 47.3 µM (inactive) in assay [13].

On to `Cc1ccc2c(C)c(C(=O)Nc3c(C)n(C)n(-c4ccccc4)c3=O)oc2c1C`, for which the EC50 on Mu-type opioid receptor was 92.5 µM (inactive); in assay [14], 18.9 µM (inactive).

With `O=C(NCc1ccccc1)C(C1CC1)n1c(=O)c(-c2ccco2)nc2ccccc21` (stereo not drawn), the IC50 in [15] was 6.09 µM (active).

Turning to `CC(C)(CN1CCN(Cc2ccccc2)CC1)NS(=O)(=O)c1ccc(Cl)cc1`, the AC50 in the assay on Vero was 33.7 µM (active).

`CC(C)(C)c1cc(=O)n(-c2ccccc2)[nH]1`: the values for the IC50 in [16], in [17] and in [18] were > 50 µM (not active), 19.1 µM (active) and 7.95 µM (active), respectively.

As for `Cc1cc([N+](=O)[O-])c(C)cc1-c1ccc(/C=N/NC(=O)Cn2nnnc2N)o1`, in [19], the IC50 was 17.8 µM (inactive).

On to `C/C(CC(=O)Nc1ccc(N(C)C)cc1)=N\NC(=O)c1ccccn1`, for which the AC50 in assay [20] was 78 µM (active). Besides, the IC50 in assay [21] is > 20 µM (inactive).
